Columns and labels:
Assay type in all cases: in vivo
Myzus persicae = Myzus persicae test, spray, activity boost by ammonium salt and penetrant (Example 2); conditions: 0.8 ppm active compound
Procedure: Activity Boost Through Ammonium/Phosphonium Salts in Combination with Penetrants
(§1) Solvent: 7 parts by weight of dimethylformamide
(§2) Emulsifier: 2 parts by weight of alkylaryl polyglycol ether
To produce a suitable preparation of active compound, 1 part by weight of active compound is mixed with the stated amounts of solvent and emulsifier, and the concentrate is diluted with water to the desired concentration. For application with ammonium salts or phosphonium salts and penetrants (rapeseed oil methyl ester 500 EW) these are added in each case in a concentration of 1000 ppm to the spray liquor.
Bell pepper plants (Capsicum annuum) which are heavily infested by the green peach aphid (Myzus persicae) are treated with the active compound preparation of the desired concentration by spraying to runoff point. After the desired period of time, the kill in % is determined. 100% means that all animals have been killed; 0% means that none of the animals have been killed.

Aphis gossypii [1] = assay: Aphis gossypii test, spray, ammonium salt and penetrant (Example 3); conditions: 20 ppm active compound
Procedure: Aphis gossypii Test Solvent: 7 parts by weight of dimethylformamide Emulsifier: 2 parts by weight of alkylaryl polyglycol ether To produce a suitable preparation of active compound, 1 part by weight of active compound is mixed with the stated amounts of solvent and emulsifier, and the concentrate is diluted with emulsifier-containing water to the desired concentration. For application with ammonium salts or phosphonium salts and penetrant (rapeseed oil methyl ester 500 EW) these are added in each case in a concentration of 1000 ppm (a.i.) to the spray liquor. Cotton plants (Gossypium hirsutum) which are heavily infested by the cotton aphid (Aphis gossypii) are treated with the active compound preparation of the desired concentration by spraying to runoff point. After the desired period of time, the kill in % is determined. 100% means that all aphids have been killed; 0% means that none of the aphids have been killed.

Aphis gossypii [2] = assay: Aphis gossypii test, spray, with/without ammonium salt (Example 1); conditions: 20 ppm active compound, cotton plants sprayed to runoff
Procedure: as §1, §2
To produce a suitable preparation of active compound, 1 part by weight of active compound is mixed with the stated amounts of solvent and emulsifier, and the concentrate is diluted with emulsifier-containing water to the desired concentration. For application with ammonium salts or phosphonium salts these are added in a concentration of 1000 ppm to the spray liquor.
Cotton plants (Gossypium hirsutum) which are severely infested with cotton aphids (Aphis gossypii) are treated by spraying to runoff point with the preparation of the active substance at the desired concentration.
After the desired period of time, the kill in % is determined. 100% means that all aphids have been killed; 0% means that none of the aphids have been killed.

| Compound | Kill rate/% after 6 days (Myzus persicae; +AS (1000 ppm)) | Kill rate/% after 6 days (Myzus persicae; +RME (1000 ppm)) | Kill rate/% after 6 days (Myzus persicae; +RME + AS (1000 ppm each)) | Kill rate/% after 6 days (Myzus persicae; bell pepper plants sprayed to runoff, no additive) | Kill rate/% after 6 days (Aphis gossypii [1]; +AS (1000 ppm)) | Kill rate/% after 6 days (Aphis gossypii [1]; +RME (1000 ppm)) | Kill rate/% after 6 days (Aphis gossypii [1]; +RME + AS (1000 ppm each)) | Kill rate/% after 6 days (Aphis gossypii [1]; cotton plants sprayed to runoff, no additive) | Kill rate/% after 6 days (Aphis gossypii [2]; +AS (1000 ppm)) | Kill rate/% after 6 days (Aphis gossypii [2]; no additive) |
| --- | --- | --- | --- | --- | --- | --- | --- | --- | --- | --- |
| CO[C@H]1CC[C@]2(CC1)NC(=O)C(c1cc(-c3ccc(F)cc3)ccc1C)=C2O [I-a-1] | 0% | 30% | 70% | 10% | 15% | 70% | 80% | 5% | – | – |
| COC1CCC2(CC1)NC(=O)C(c1c(C)ccc(-c3ccc(F)cc3)c1C)=C2O (stereo not shown) [I-a-2] | – | – | – | – | – | – | – | – | 25% | 15% |

Reference: US8993782B2, “Cis-alkoxyspirocyclic biphenyl-substituted tetramic acid derivatives” (Bayer CropScience AG, priority 2006, dated 2015)
